Measured values taken from patent US8466195B2, “Methods and compositions for treating complications of diabetes and vascular diseases using flavones” (Salk Institute for Biological Studies, priority 2009, dated 2013).

How the values were obtained:
osteopontin (OPN) = experiment: Kidney osteopontin (OPN) in Akita mice (immunoblot); format: in vivo; conditions: fisetin in diet, OPN band normalized to actin
Description: Kidneys were homogenized in phosphate buffered saline containing protease and phosphatase inhibitors. Equal amounts of protein, as determined by the BCA assay (Pierce), were solubilized in SDS-sample buffer containing 0.1 mM Na3VO4 and 1 mM phenylmethylsulfonyl fluoride (PMSF), boiled for 5 min and either analyzed immediately or stored frozen at −70° C. Proteins were separated on 10% SDS-polyacrylamide gels and transferred to nitrocellulose. Equal loading and transfer of the samples was confirmed by staining the nitrocellulose with Ponceau-S. Transfers were blocked for 1 h at room temperature with 5% nonfat milk in TBS/0.1% Tween 20 and then incubated overnight at 4° C. in the primary antibody diluted in 5% BSA in TBS/0.05% Tween 20. The primary antibodies used were: rabbit anti-osteopontin (Millipore) and actin-HRP (Cell Signaling). […]
OPN is a key regulator of the pathophysiological changes associated with diabetic nephropathy (Nicolas et al. Kidney Int. advance online publication, 3 Feb. 2010). […] Kidney samples from 6-7 mice were analyzed and the average intensity of the OPN band normalized to actin is shown in the graph. […] In FIG. 10, the data was analyzed by ANOVA followed by Tukey's post test. *** P<0.001

Akita mice = experiment: Urine albumin/creatinine ratio in Akita mice; format: in vivo; conditions: fisetin 0.05% in diet for 18 weeks
Description: Urine albumin concentration was determined by competitive enzyme-linked immunoadsorbent assay using an Albuwell M kit (Exocell, Philadelphia, Pa.). Urine creatinine concentration was determined by Jaffe's reaction of alkaline picrate with creatinine using a Creatinine Companion kit (Exocell). Results are expressed as the urine albumin-to-creatinine ratio (micrograms per milligram).
Male Akita mice were fed control diet or fisetin (0.05%) for 18 weeks beginning at 6 weeks of age. Kidney hypertrophy was assessed by weighing the kidneys. Kidney function was assessed by measuring the albumin/creatinine ratio in the urine. Fisetin reduced diabetes-induced renal hypertrophy and proteinuria. All data are mean±SD of N=5-7/group.

STZ-diabetic rats = experiment: Indices of nerve function in STZ-diabetic rats; format: in vivo, Sprague-Dawley rats; conditions: 25 mg/kg/day fisetin for 8 weeks
Description: Adult female Sprague-Dawley rats were made diabetic with STZ and treated with vehicle or 25 mg/kg/day fisetin for 8 weeks. Large fiber function was tested by measuring nerve conduction velocity and paw withdrawal to touch and small fiber function by paw withdrawal to noxious heat. […] Data are mean±SEM of N=4-8/group.

HT22 cells = experiment: Oxidative glutamate toxicity (MTT cell viability); format: cell-based; conditions: 5 mM glutamate, fisetin, 24 hr
Description: Cell viability was determined by a modified version of 3-(4,5-dimethylthiazol-2-yl)-2,5-diphenyl tetrazolium bromide (MTT) assay based on the standard procedure (Hansen M B et al. J. Immunol. Methods 119:203-210, 1989). Briefly, cells were seeded onto 96-well microtiter plates at a density of 5×10^3 cells per well. The next day, the medium was replaced with DMEM supplemented with 7.5% DFCS and the cells were treated with the different fisetin derivatives alone or in the presence of 5 mM glutamate. Twenty four hours later, the medium in each well was aspirated and replaced with fresh medium containing 2.5 μg/ml MTT. After 4 hours of incubation at 37° C., cells were solubilized with 100 μA of a solution containing 50% dimethylformamide and 20% SDS (pH 4.7). The absorbance at 570 nm was measured on the following day with a microplate reader (Molecular Devices). Results obtained from the MTT assay correlated directly with the extent of cell death as confirmed visually. Controls employing wells without cells were used to determine the effects of the agents upon the assay chemistry.
As shown in panel (A) of FIG. 3, HT22 cells were untreated (ct) or treated with 10 μM fisetin (fis) in the absence of presence of 5 mM glutamate for 24 hr and GSH was measured enzymatically and normalized to protein. As shown in panel (B) of FIG. 3, HT22 cells in 96-well plates were treated with 5 mM glutamate and the indicated concentrations of fisetin. MTT reduction was measured after 24 hr.

HT-22 nerve cells = HT-22 nerve cells exposed to glutamate: MG adducts and viability; format: cell-based; conditions: 5 mM glutamate, 2 μM fisetin
Description: HT-22 nerve cells were exposed to 0.5 mM glutamate and Glo-1 expression monitored at 8 and 24 hrs. In panel (B) of FIG. 2, Fisetin is shown to prevent both cell death and protein glycation. HT-22 cells were exposed to 5 mM glutamate in the presence or absence of 2 μM fisetin. MG adducts were determined by Western blotting 8 hrs after glutamate exposure and viability after 24 hrs. Actin is at the bottom of the blot. In panel (C) of FIG. 2, the Glo-1 inhibitor s-p-bromobenzylglutathione […] is shown to potentiate cell death. HT-22 cells were exposed to 1 mM glutamate plus or minus 10 or 20 μM BBGD.

## O=c1c(O)c(-c2ccc(O)c(O)c2)oc2cc(O)ccc12 [fisetin, 2-(3,4-dihydroxyphenyl)-3,7-dihydroxychromen-4-one]
Osteopontin (OPN)
  diabetes-dependent upregulation of osteopontin (OPN) in kidney: Prevented
Akita mice
  proteinuria (urine albumin/creatinine ratio): almost completely prevented
Akita mice; listed as Fisetin
  proteinuria (urine albumin/creatinine ratio): reduced
STZ-diabetic rats
  diabetes-induced SNCV slowing: ameliorated
  severity of diabetes: did not alter
  tactile allodynia (paw withdrawal to touch): ameliorated
  thermal hyperalgesia (paw withdrawal to noxious heat): ameliorated
HT22 cells
  glutamate toxicity (MTT reduction): Reduction
HT-22 nerve cells; Western blotting 8 hrs after glutamate
  protein glycation (MG adducts): prevent
HT-22 nerve cells; viability after 24 hrs
  cell death: prevent
